Key:
[1] = target: Beta-1 adrenergic receptor (Cavia porcellus) (UniProt B0FL73)
[2] = target: Beta-1 adrenergic receptor (Cavia porcellus) (UniProt B0FL73); experiment: Intrinsic activity at beta-1 adrenergic receptor in guinea pig right atria assessed as increase in contraction rate of spontaneously beating right atria relative to isoproterenol
Cavia porcellus = species: Cavia porcellus; experiment: Selectivity ratio of ED25 for beta-1 adrenergic receptor in guinea pig right atria to ED50 for beta-2 adrenergic receptor in guinea pig tracheal chain
[3] = target: Beta-2 adrenergic receptor (Cavia porcellus) (UniProt Q8K4Z4); conditions: Trachea
Description: Agonist activity at beta-2 adrenergic receptor in guinea pig tracheal chain assessed as relaxation of spontaneously contracted tracheal smooth muscle

[4] = target: Beta-1 adrenergic receptor (Cavia porcellus) (UniProt B0FL73); experiment: Agonist activity at beta-1 adrenergic receptor in guinea pig right atria assessed as increase in contraction rate of spontaneously beating right atria at 1.1 X 10^-5 M relative to control
[5] = target: Beta-1 adrenergic receptor (Cavia porcellus) (UniProt B0FL73); experiment: Agonist activity at beta-1 adrenergic receptor in guinea pig right atria assessed as increase in contraction rate of spontaneously beating right atria at 6.3 X 10^-5 M relative to control

Sequence of Beta-2 adrenergic receptor (Cavia porcellus) (Q8K4Z4 whole entry, looked up): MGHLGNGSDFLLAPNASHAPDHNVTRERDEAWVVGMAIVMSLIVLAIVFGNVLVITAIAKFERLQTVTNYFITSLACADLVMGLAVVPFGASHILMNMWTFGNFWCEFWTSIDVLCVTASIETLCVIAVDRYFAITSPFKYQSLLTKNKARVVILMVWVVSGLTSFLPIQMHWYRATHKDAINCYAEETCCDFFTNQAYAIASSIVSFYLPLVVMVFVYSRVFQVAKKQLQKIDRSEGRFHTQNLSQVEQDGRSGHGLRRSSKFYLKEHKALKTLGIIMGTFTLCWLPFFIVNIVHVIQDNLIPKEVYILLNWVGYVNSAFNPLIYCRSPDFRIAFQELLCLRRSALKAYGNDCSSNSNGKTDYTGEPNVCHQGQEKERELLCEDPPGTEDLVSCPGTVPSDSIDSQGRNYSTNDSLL
Sequence of Beta-1 adrenergic receptor (Cavia porcellus) (B0FL73 1-467): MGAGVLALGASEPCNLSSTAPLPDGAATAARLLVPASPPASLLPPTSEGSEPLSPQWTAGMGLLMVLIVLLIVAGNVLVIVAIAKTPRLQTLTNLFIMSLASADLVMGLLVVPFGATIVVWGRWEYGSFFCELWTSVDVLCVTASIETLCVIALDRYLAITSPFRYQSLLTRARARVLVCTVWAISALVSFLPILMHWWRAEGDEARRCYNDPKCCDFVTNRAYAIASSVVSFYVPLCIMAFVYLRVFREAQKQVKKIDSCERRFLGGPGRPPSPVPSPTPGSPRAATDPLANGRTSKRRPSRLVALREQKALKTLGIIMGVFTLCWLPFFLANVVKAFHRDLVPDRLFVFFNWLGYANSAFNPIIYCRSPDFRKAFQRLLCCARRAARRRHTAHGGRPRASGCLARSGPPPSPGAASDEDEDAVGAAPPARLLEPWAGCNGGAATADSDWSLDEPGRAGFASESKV

ED25 [1]	Intrinsic activity [2]	Selectivity ratio (Cavia porcellus)	ED50 [3]	Activity [4] [%]	Structure (SMILES)	Activity [5] [%]
9.6 ×10⁻⁸ M	1	2.9	3.3 ×10⁻⁸ M	–	CC(C)(C)NCC(CO)c1ccc(O)c(O)c1 (stereo not drawn)	–
9.8 ×10⁻⁵ M	0.3	24	4.1 µM	–	CC(C)(C)NCC(CO)c1ccc(O)cc1 (stereo not drawn)	–
9.3 µM	0.3	18	5.2 ×10⁻⁷ M	–	CC(C)(C)NCC(CO)c1ccc(O)c(NC(N)=O)c1 (stereo not drawn)	–
4.7 ×10⁻⁵ M	0.25	10	4.6 µM	–	CC(C)(C)NCC(CO)c1ccc(O)c(CO)c1 (stereo not drawn)	–
–	–	–	6 ×10⁻⁷ M	18	CC(C)(C)NCC(CO)c1ccc(O)c(NS(C)(=O)=O)c1 (stereo not drawn)	–
6.4 ×10⁻⁷ M	0.5	34	1.9 ×10⁻⁸ M	–	CC(C)(C)NCC(O)c1ccc(O)c(NC(N)=O)c1 (stereo not drawn)	–
3.1 ×10⁻⁷ M	0.7	28	1.1 ×10⁻⁸ M	–	CC(C)(C)NCC(O)c1ccc(O)c(CO)c1 (stereo not drawn)	–
1.3 µM	0.7	1.4	9.6 ×10⁻⁷ M	–	CC(C)(C)NCC(CO)c1ccc(O)c(N)c1 (stereo not drawn)	–
7.6 ×10⁻⁸ M	0.7	3	2.6 ×10⁻⁸ M	–	CC(C)NCC(O)c1ccc(O)c(NS(C)(=O)=O)c1 (stereo not drawn)	–
–	–	–	0.0071 µM	–	CC(C)NCC(O)c1ccc(O)c(O)c1 (stereo not drawn)	–
3 ×10⁻⁷ M	–	–	1.6 µM	–	COC(CNC(C)C)c1ccc(O)c(O)c1 (stereo not drawn)	–

Structure (SMILES)	ED25 [1]	Intrinsic activity [2]	Selectivity ratio (Cavia porcellus)	ED50 [3]	Activity [4] [%]	Activity [5] [%]
CC(C)(C)NCC(O)c1ccc(O)c(O)c1 (stereo not drawn)	0.0071 µM	1	5.5	0.0013 µM	–	–
CC(C)(C)NCC(O)c1ccc(O)c(N)c1 (stereo not drawn)	–	–	5.2	–	–	–
CC(C)NCC(C)(O)c1ccc(O)c(O)c1 (stereo not drawn)	–	–	–	3.4 µM	–	18
CC(C)NCC(O)c1ccc(O)cc1 (stereo not drawn)	7.7 ×10⁻⁸ M	0.3	0.7	1.1 ×10⁻⁷ M	–	–

Reference: ChEMBL document CHEMBL3272119, “Adrenergic agents. 8.1 Synthesis and beta-adrenergic agonist activity of some 3-tert-butylamino-2-(substituted phenyl)-1-propanols” (J Med Chem, 1977)
